Test results from US10323018B2 (Millennium Pharmaceuticals, Inc., priority 2015, dated 2019).

What was measured:
hNAMPT protein = hNAMPT protein (Homo sapiens (Human), UniProt P43490); experiment: NAMPT enzyme assay (TR-FRET/HTRF with BodiPY ligand); assay type: binding; settings: for inhibition at 1 µM: NAMPT inhibition at compound concentration 1 μM, read-out: Percent Inhibition; for IC50: NAMPT inhibition, IC50 range class
Method in brief: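 His-tagged hNAMPT with anti-6His-Tb, incubated with compound and BodiPY ligand for 1 h at rt in the dark, in Tris-HCl pH 7.5 buffer with DTT, NaCl, MgCl2 and Tween 20. TR-FRET measured with 320 nm excitation as the 520/486 nm emission ratio. IC50 fitted relative to DMSO controls.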

PC3 cells = experiment: PC3 growth inhibition (Cell-titer glo, 72 hours); assay type: cell-based; settings: Homo sapiens, PC-3, 72 h, read-out: Percent Viability, PC3 cells, compound concentration 1.667 μM, 72 hours
Method in brief: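 PC3 cells grown in RPMI1640 plated at 8×10^4 cells/ml, incubated overnight, then exposed to compound diluted in AIM serum-free medium for 72 h at 37 °C, 5% CO2. Luminescence by CellTiter-Glo relative to DMSO controls; % viability at single concentration, GI50 or LD50 from concentration-response curves.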

Sequence of hNAMPT protein (P43490 whole entry): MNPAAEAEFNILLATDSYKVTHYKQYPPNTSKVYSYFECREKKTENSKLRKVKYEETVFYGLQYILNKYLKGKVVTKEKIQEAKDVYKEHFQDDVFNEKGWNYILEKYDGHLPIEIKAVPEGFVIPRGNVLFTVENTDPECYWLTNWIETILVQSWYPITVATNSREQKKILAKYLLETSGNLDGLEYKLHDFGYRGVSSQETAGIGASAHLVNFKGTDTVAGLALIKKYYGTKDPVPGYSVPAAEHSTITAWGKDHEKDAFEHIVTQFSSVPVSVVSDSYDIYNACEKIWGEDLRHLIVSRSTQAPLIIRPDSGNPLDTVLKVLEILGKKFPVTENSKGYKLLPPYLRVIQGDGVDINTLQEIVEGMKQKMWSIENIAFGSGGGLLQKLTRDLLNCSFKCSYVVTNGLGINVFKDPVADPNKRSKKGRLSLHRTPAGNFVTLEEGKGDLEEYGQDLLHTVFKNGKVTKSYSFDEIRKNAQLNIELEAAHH

SMILES: CC[C@@H](F)c1nc(-c2ccc(Cl)cc2)nc2cc(C(=O)NCCCc3ncc[nH]3)ccc12 (stereo in doubt) [Compound I-72, 2-(4-chlorophenyl)-4-[1-fluoropropyl]-N-[3-(1H-imidazol-2-yl)propyl]quinazoline-7-carboxamide]
- inhibition at 1 µM (hNAMPT protein): 98%
- IC50 (hNAMPT protein): < 10 nM
- viability at 1.667 µM (PC3 cells): 1%

SMILES: CCOc1cc(-c2ccc(C)nc2OC)nc2cc(C(=O)NCc3nc4cnccc4[nH]3)ccc12 [Compound I-174, 4-ethoxy-N-(1H-imidazo[4,5-c]pyridin-2-ylmethyl)-2-(2-methoxy-6-methylpyridin-3-yl)quinoline-7-carboxamide]
- inhibition at 1 µM (hNAMPT protein): > 99%
- IC50 (hNAMPT protein): < 10 nM
- viability at 1.667 µM (PC3 cells): 1%

SMILES: CCOc1cc(-c2ccn(C)c(=O)c2)nc2cc(C(=O)NCCCc3cnn[nH]3)ccc12 [Compound I-95, 4-ethoxy-2-(1-methyl-2-oxo-1,2-dihydropyridin-4-yl)-N-[3-(1H-1,2,3-triazol-5-yl)propyl]quinoline-7-carboxamide]
- inhibition at 1 µM (hNAMPT protein): > 99%
- IC50 (hNAMPT protein): < 10 nM
- viability at 1.667 µM (PC3 cells): 1%

SMILES: COc1cc(-c2nc(-c3ccc(F)cc3)nc3cc(C(=O)NCCCc4nnc[nH]4)ccc23)ccn1 [Compound I-197, 2-(4-fluorophenyl)-4-(2-methoxypyridin-4-yl)-N-[3-(4H-1,2,4-triazol-3-yl)propyl]quinazoline-7-carboxamide]
- inhibition at 1 µM (hNAMPT protein): 97%
- IC50 (hNAMPT protein): 10 to 50 nM
- viability at 1.667 µM (PC3 cells): 3%

SMILES: CCOc1cc(-c2ccc(F)cc2)nc2cc(C(=O)NCC(F)(F)Cc3nnc[nH]3)ccc12 [Compound I-91, N-[2,2-difluoro-3-(4H-1,2,4-triazol-3-yl)propyl]-4-ethoxy-2-(4-fluorophenyl)quinoline-7-carboxamide]
- inhibition at 1 µM (hNAMPT protein): 80%
- IC50 (hNAMPT protein): > 100 nM
- viability at 1.667 µM (PC3 cells): 2%

SMILES: CCOc1cc(-c2ccnc(OC)c2)nc2cc(C(=O)NCCCc3nnc[nH]3)ccc12 [Compound I-114, 4-ethoxy-2-(2-methoxypyridin-4-yl)-N-[3-(4H-1,2,4-triazol-3-yl)propyl]quinoline-7-carboxamide]
- inhibition at 1 µM (hNAMPT protein): 97%
- IC50 (hNAMPT protein): 10 to 50 nM
- viability at 1.667 µM (PC3 cells): 2%

SMILES: CCOc1cc(-c2ccc(F)cc2)nc2cc(C(=O)NCCc3n[nH]nc3C)ccc12 [Compound I-203, 4-ethoxy-2-(4-fluorophenyl)-N-[2-(5-methyl-2H-1,2,3-triazol-4-yl)ethyl]quinoline-7-carboxamide]
- inhibition at 1 µM (hNAMPT protein): 98%
- IC50 (hNAMPT protein): < 10 nM
- viability at 1.667 µM (PC3 cells): 2%

SMILES: CCOc1cc(-c2ccc(F)cc2)nc2cc(C(=O)NCCCc3cncnc3)ccc12 [Compound I-228, 4-ethoxy-2-(4-fluorophenyl)-N-[3-(pyrimidin-5-yl)propyl]quinoline-7-carboxamide]
- inhibition at 1 µM (hNAMPT protein): 94%
- IC50 (hNAMPT protein): < 10 nM
- viability at 1.667 µM (PC3 cells): 5%

SMILES: CCOc1cc(-c2cccnc2C)nc2cc(C(=O)NCCCc3nnc[nH]3)ccc12 [Compound I-213, 4-ethoxy-2-(2-methylpyridin-3-yl)-N-[3-(4H-1,2,4-triazol-3-yl)propyl]quinoline-7-carboxamide]
- inhibition at 1 µM (hNAMPT protein): 87%
- IC50 (hNAMPT protein): > 100 nM
- viability at 1.667 µM (PC3 cells): 1%

SMILES: CCOc1cc(-c2ccc(F)cc2)nc2cc(C(=O)NCc3cc4[nH]ncc4s3)ccc12 [Compound I-80, 4-ethoxy-2-(4-fluorophenyl)-N-(1H-thieno[3,2-c]pyrazol-5-ylmethyl)quinoline-7-carboxamide]
- inhibition at 1 µM (hNAMPT protein): 98%
- IC50 (hNAMPT protein): < 10 nM
- viability at 1.667 µM (PC3 cells): 2%

SMILES: COCCOc1cc(-c2ccc(F)cc2)nc2cc(C(=O)NCCCc3ncc[nH]3)ccc12 [Compound I-156, 2-(4-fluorophenyl)-N-[3-(1H-imidazol-2-yl)propyl]-4-(2-methoxyethoxy)quinoline-7-carboxamide]
- inhibition at 1 µM (hNAMPT protein): 100%
- IC50 (hNAMPT protein): < 10 nM
- viability at 1.667 µM (PC3 cells): 2%

SMILES: CCOc1cc(-c2ccc(F)cc2)nc2cc(C(=O)NCCc3cc(N)[nH]n3)ccc12 [Compound I-134, N-[2-(5-amino-1H-pyrazol-3-yl)ethyl]-4-ethoxy-2-(4-fluorophenyl)quinoline-7-carboxamide]
- inhibition at 1 µM (hNAMPT protein): 93%
- IC50 (hNAMPT protein): 10 to 50 nM
- viability at 1.667 µM (PC3 cells): 3%

SMILES: CCOc1cc(-c2ccc(F)cc2OC)nc2cc(C(=O)NCCc3ncn[nH]3)ccc12 [Compound I-170, 4-ethoxy-2-(4-fluoro-2-methoxyphenyl)-N-[2-(1H-1,2,4-triazol-5-yl)ethyl]quinoline-7-carboxamide]
- inhibition at 1 µM (hNAMPT protein): 93%
- IC50 (hNAMPT protein): 50 to 100 nM
- viability at 1.667 µM (PC3 cells): 2%

SMILES: CCOc1cc(C2CCOCC2)nc2cc(C(=O)NCCCc3nnc[nH]3)ccc12 [Compound I-135, 4-ethoxy-2-(tetrahydro-2H-pyran-4-yl)-N-[3-(4H-1,2,4-triazol-3-yl)propyl]quinoline-7-carboxamide]
- inhibition at 1 µM (hNAMPT protein): 71%
- IC50 (hNAMPT protein): > 100 nM
- viability at 1.667 µM (PC3 cells): 4%

SMILES: CCOc1cc(-c2ccc(=O)n(C)c2)nc2cc(C(=O)NCCCc3[nH]nnc3C)ccc12 [Compound I-97, 4-ethoxy-2-(1-methyl-6-oxo-1,6-dihydropyridin-3-yl)-N-[3-(4-methyl-1H-1,2,3-triazol-5-yl)propyl]quinoline-7-carboxamide]
- inhibition at 1 µM (hNAMPT protein): > 99%
- IC50 (hNAMPT protein): 10 to 50 nM
- viability at 1.667 µM (PC3 cells): 2%

SMILES: CCCc1nc(-c2ccc(F)cc2)nc2cc(C(=O)NCCCc3ncc[nH]3)ccc12 [Compound I-16, 2-(4-fluorophenyl)-N-[3-(1H-imidazol-2-yl)propyl]-4-propylquinazoline-7-carboxamide]
- inhibition at 1 µM (hNAMPT protein): 100%
- IC50 (hNAMPT protein): < 10 nM
- viability at 1.667 µM (PC3 cells): 0%

SMILES: CC(C)Oc1cc(-c2ccc(F)cc2)nc2cc(C(=O)NCCCc3ncc[nH]3)ccc12 [Compound I-17, 2-(4-fluorophenyl)-N-[3-(1H-imidazol-2-yl)propyl]-4-isopropoxyquinoline-7-carboxamide]
- inhibition at 1 µM (hNAMPT protein): 99%
- IC50 (hNAMPT protein): < 10 nM
- viability at 1.667 µM (PC3 cells): 0%

SMILES: CCOc1cc(-c2ccc(=O)n(C)c2)nc2cc(C(=O)NCCCc3cnn[nH]3)ccc12 [Compound I-96, 4-ethoxy-2-(1-methyl-6-oxo-1,6-dihydropyridin-3-yl)-N-[3-(1H-1,2,3-triazol-5-yl)propyl]quinoline-7-carboxamide]
- inhibition at 1 µM (hNAMPT protein): > 99%
- IC50 (hNAMPT protein): < 10 nM
- viability at 1.667 µM (PC3 cells): 1%

SMILES: CCCc1cc(-c2ccc(F)cc2)nc2cc(C(=O)NCCCc3cc[nH]n3)ccc12 [Compound I-147, 2-(4-fluorophenyl)-4-propyl-N-[3-(1H-pyrazol-3-yl)propyl]quinoline-7-carboxamide]
- inhibition at 1 µM (hNAMPT protein): 92%
- IC50 (hNAMPT protein): 50 to 100 nM
- viability at 1.667 µM (PC3 cells): 2%

SMILES: CCOc1nc(-c2ccc(Cl)s2)nc2cc(C(=O)NCc3ccc4nccn4c3)ccc12 [Compound I-28, 2-(5-chloro-2-thienyl)-4-ethoxy-N-(imidazo[1,2-a]pyridin-6-ylmethyl)quinazoline-7-carboxamide]
- inhibition at 1 µM (hNAMPT protein): 99%
- IC50 (hNAMPT protein): < 10 nM
- viability at 1.667 µM (PC3 cells): 1%

SMILES: CCOc1cc(-c2ccc(OC)nc2)nc2cc(C(=O)NCCc3c[nH]nn3)ccc12 [Compound I-185, 4-ethoxy-2-(6-methoxypyridin-3-yl)-N-[2-(1H-1,2,3-triazol-4-yl)ethyl]quinoline-7-carboxamide]
- inhibition at 1 µM (hNAMPT protein): 98%
- IC50 (hNAMPT protein): 10 to 50 nM
- viability at 1.667 µM (PC3 cells): 2%

SMILES: COCCOc1cc(-c2ccnc(C)c2)nc2cc(C(=O)NCc3ccn4ncnc4c3)ccc12 [Compound I-69, 4-(2-methoxyethoxy)-2-(2-methylpyridin-4-yl)-N-([1,2,4]triazolo[1,5-a]pyridin-7-ylmethyl)quinoline-7-carboxamide]
- inhibition at 1 µM (hNAMPT protein): 86%
- IC50 (hNAMPT protein): > 100 nM
- viability at 1.667 µM (PC3 cells): 4%

SMILES: CCOc1cc(SCC)nc2cc(C(=O)NCCCc3ncc[nH]3)ccc12 [Compound I-49, N-(3-(1H-Imidazol-2-yl)propyl)-4-ethoxy-2-(ethylthio)quinoline-7-carboxamide]
- inhibition at 1 µM (hNAMPT protein): 98%
- IC50 (hNAMPT protein): < 10 nM
- viability at 1.667 µM (PC3 cells): 5%

SMILES: CCNc1cc(OCC)c2ccc(C(=O)NCCCc3ncc[nH]3)cc2n1 [Compound I-42, 4-ethoxy-2-(ethylamino)-N-[3-(1H-imidazol-2-yl)propyl]quinoline-7-carboxamide]
- inhibition at 1 µM (hNAMPT protein): 83%
- IC50 (hNAMPT protein): > 100 nM
- viability at 1.667 µM (PC3 cells): 11%

SMILES: CCOc1c(F)c(-c2ccnc(OC)c2)nc2cc(C(=O)NCCCc3[nH]nnc3C)ccc12 [Compound I-65, 4-ethoxy-3-fluoro-2-(2-methoxypyridin-4-yl)-N-[3-(4-methyl-1H-1,2,3-triazol-5-yl)propyl]quinoline-7-carboxamide]
- inhibition at 1 µM (hNAMPT protein): 91%
- IC50 (hNAMPT protein): 50 to 100 nM
- viability at 1.667 µM (PC3 cells): 1%

SMILES: O=C(NCCCc1ncc[nH]1)c1ccc2c(-c3ccc(F)cc3)nc(-c3ccc(Cl)cc3)nc2c1 [Compound I-57, 2-(4-Chlorophenyl)-4-(4-fluorophenyl)-N-[3-(1H-imidazol-2-yl)propyl]quinazoline-7-carboxamide]
- inhibition at 1 µM (hNAMPT protein): 99%
- IC50 (hNAMPT protein): < 10 nM
- viability at 1.667 µM (PC3 cells): 1%

SMILES: CCOc1cc(-c2ccnc(OC)c2)nc2cc(C(=O)NCCc3c[nH]nc3C)ccc12 [Compound I-100, 4-ethoxy-2-(2-methoxypyridin-4-yl)-N-[2-(3-methyl-1H-pyrazol-4-yl)ethyl]quinoline-7-carboxamide]
- inhibition at 1 µM (hNAMPT protein): 92%
- IC50 (hNAMPT protein): 50 to 100 nM
- viability at 1.667 µM (PC3 cells): 2%

SMILES: CCOc1cc(-c2ccc(=O)n(C)c2)nc2cc(C(=O)NCCCc3nnc[nH]3)ccc12 [Compound I-122, 4-ethoxy-2-(1-methyl-6-oxo-1,6-dihydropyridin-3-yl)-N-[3-(4H-1,2,4-triazol-3-yl)propyl]quinoline-7-carboxamide]
- inhibition at 1 µM (hNAMPT protein): > 99%
- IC50 (hNAMPT protein): 10 to 50 nM
- viability at 1.667 µM (PC3 cells): 2%
